Source: paper PMC10688098, “Intrinsic Solubility of Ionizable Compounds from pKa Shift” (ACS Omega, 2023)
In brackets after ≈: the same amount, converted by molar mass.

Columns and labels:
Format in all cases: physicochemical
[1] = Intrinsic pKa and intrinsic solubility of ICPD47 from pKa shift (spectrophotometric and potentiometric titration, linked ionization-dissolution model); conditions: 25 °C, pKa shift model
Description: (§1) The compound ICPD47 is sparingly soluble at near-neutral pH. Solubility is approximately equal to or below 100 μM. The solutions exceeding the solubility limit (0.25, 0.5, and 1.0 mM) were prepared by adding 1.5 equiv of NaOH (0.375 0.75, and 1.5 mM, respectively; 0.5 equiv excess), thus shifting the compound to its highly soluble deprotonated negatively charged form. The deprotonated solutions were titrated with […] more concentrated HCl (2.5 mM; 5.0 mM; and 10 mM) containing the same concentration of DMSO as in the analyte solution (2.0% in all solutions).
The pH titration was performed with a 250 μL syringe that was filled with the titrant (acid), and the needle was placed into the sample cell filled with 2.5 mL of analyzed solution. A pH microelectrode was also inserted into the same cell. […] The analyzed solution was mixed after each injection using a pipet. The pH was measured potentiometrically using a Mettler Toledo MP220 pH meter with a combined glass InLab Microelectrode. […] The pH measurements were recorded only when the pH measurement instability was less than 0.01 min^–1. […]
The ICPD47 compound solutions were prepared in the universal buffer of different pH values from 4.5 to 10.5 at every 0.5 pH unit. […] The absorbance was measured with an Agilent 8453 UV–vis spectrophotometer using the same 2.5 mL cuvette as for potentiometric titration. […]

[2] = Solubility at near-neutral pH; conditions: aqueous buffer
Description: as §1

[3] = Chemical stability in acid and base; conditions: pH 2.0 to 12.0
[4] = Intrinsic pKa and intrinsic solubility from the model applied to literature titration data (Bjerrum plots)
Description: Since raw data formats were unavailable, we used WebPlotDigitizer to extract data from Bjerrum plots.[28],[29] Additionally, we used the equation for bound hydrogen ions per substance molecule to reverse engineer equivalent titrant added during the titration.[30] According to the model, any protonizable compound exists in three forms, the charged-dissolved form, the uncharged-dissolved form, and the uncharged-nondissolved (aggregated) form. We use the concept of 'the active concentration of an aggregate (precipitate)'. This concentration is mathematically equal to the amount of aggregate divided by volume of solution. This aggregate remains undissolved and is at an equilibrium (thermodynamic) concentration. The uncharged form of the ICPD47 compound exists in two forms, the dissolved form [ROH] and the aggregated form [ROH↓]. Furthermore, the total concentration of the ICPD47 compound, C, is equal to the sum of all three forms of the compound and includes the deprotonated concentration [RO^-]: [drawing 1] 1 Here we assume that the deprotonated form is highly soluble and there is no need to consider the aggregated form of the negatively charged deprotonated compound. […] A is inversely proportional to the intrinsic solubility, S, and is expressed and rearranged to [drawing 7] 7 [drawing 8] […] 12 cannot be expressed as a function pH = f([Hadd^+]), but may be solved numerically.

Row | solubility ([1]; aqueous buffer, kinetic from dmso stock, aqueous universal buffer / titration with DMSO, read-out: Intrinsic solubility of the uncharged form) [µM] | pKa ([1]; read-out: Intrinsic pKa (model estimate)) | solubility [2] [µM] | Chemical stability in acid and base [3] | pKa ([4]; model fit to literature titration data, value at infinite dilution) | solubility ([4]; water, thermodynamic from solid, model fit to literature titration data (ref 5, 22, 23)) [µM] | Compound
1 | ~75 | 6.85 | ≤ 100 | chemically stable in acid and base | – | – | CCOc1ccc(-c2snnc2-c2cc(Cl)c(O)cc2O)cc1 [ICPD47]
2 | – | – | – | – | 9.6 | 270 (≈ 83.5 µg/mL) | CN(C)CCCOc1nn(Cc2ccccc2)c2ccccc12 [benzydamine]
